Tests used:
BTK wildtype protein = BTK wildtype protein (Homo sapiens (Human), UniProt Q06187); test: BTK wildtype HTRF displacement assay; assay type: binding; conditions: 1-hour incubation; read-out: BTK (wt) IC50
Summary of the method: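 Full-length N-terminal GST-tagged BTK incubated 1 h at room temperature with compound (6 doses, four-fold dilutions from 5 μM top) plus kinase tracer 239 and anti-GST-Tb antibody. Tracer displacement read as TR-FRET 665/620 ratio, background-subtracted using no-protein control. IC50 from four-parameter fit constrained 0–100% inhibition.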

BTK C481S protein = BTK C481S protein (Homo sapiens (Human), UniProt Q06187, C481S); test: BTK C481S HTRF displacement assay; assay type: binding; conditions: 1-hour incubation
Summary of the method: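 N-terminal GST-tagged BTK C481S (2-659) incubated 1 hour at room temperature with compound (6 doses, four-fold from 5 μM), 50 nM kinase tracer 239 and anti-GST-Tb antibody. TR-FRET 665/620 ratio, background-subtracted; IC50 from constrained four-parameter fit. KI=IC50/(1+[Tracer]/Kd), tracer Kd 54 nM.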

BTK C481S protein, sequence (Q06187 2-659 C481S): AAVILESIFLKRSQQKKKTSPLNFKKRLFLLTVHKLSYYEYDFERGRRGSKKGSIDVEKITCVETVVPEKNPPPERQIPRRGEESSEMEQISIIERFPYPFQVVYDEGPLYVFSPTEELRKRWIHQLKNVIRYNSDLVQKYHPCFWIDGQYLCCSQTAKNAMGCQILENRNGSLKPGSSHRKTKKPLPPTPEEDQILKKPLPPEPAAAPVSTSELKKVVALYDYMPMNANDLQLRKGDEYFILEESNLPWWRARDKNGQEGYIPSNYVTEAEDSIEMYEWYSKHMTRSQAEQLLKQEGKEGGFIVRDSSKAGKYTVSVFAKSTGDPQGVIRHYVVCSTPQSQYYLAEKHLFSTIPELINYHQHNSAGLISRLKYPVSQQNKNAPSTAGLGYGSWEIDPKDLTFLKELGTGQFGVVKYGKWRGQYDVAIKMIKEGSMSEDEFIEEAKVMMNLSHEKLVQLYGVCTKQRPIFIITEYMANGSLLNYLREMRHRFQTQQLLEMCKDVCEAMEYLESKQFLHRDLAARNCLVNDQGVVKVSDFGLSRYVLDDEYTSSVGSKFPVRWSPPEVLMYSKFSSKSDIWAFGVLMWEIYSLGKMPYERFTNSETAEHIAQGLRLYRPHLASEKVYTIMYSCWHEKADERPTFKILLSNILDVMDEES
BTK wildtype protein, sequence (Q06187 2-659): as the sequence (Q06187 2-659 C481S) above, with S480C counted along it

Row | IC50 (BTK wildtype protein) [nM] | IC50 (BTK C481S protein) [nM] | SMILES
1 | ≤ 1000 | ≤ 1000 | COc1ccc(F)cc1C(=O)NCc1ccc(-c2nn(C[C@@H]3CC[C@H]3N(C)C(=O)n3cncn3)c(N)c2C(N)=O)cc1 [Compound 121, N-((1R,2S)-2-((5-amino-4-carbamoyl-3-(4-((5-fluoro-2-methoxybenzamido)methyl)phenyl)-1H-pyrazol-1-yl)methyl)cyclobutyl)-N-methyl-1H-1,2,4-triazole-1-carboxamide]
2 | ≤ 1000 | ≤ 1000 | CN(C(=O)n1cncn1)[C@@H]1CCC[C@@H](n2nc(-c3ccc(Oc4ccccc4)cc3)c(C(N)=O)c2N)C1 [Compound 247, N-((1R,3R)-3-(5-amino-4-carbamoyl-3-(4-phenoxyphenyl)-1H-pyrazol-1-yl)cyclohexyl)-N-methyl-1H-1,2,4-triazole-1-carboxamide]
3 | > 1000 | > 1000 | COc1ccc(F)cc1C(=O)NCc1ccc(-c2nn(C(Cc3ccccn3)CN(C)C(=O)n3cncn3)c3ncnc(N)c23)cc1 (centres unmarked) [Compound 268, N-(2-(4-amino-3-(4-((5-fluoro-2-methoxybenzamido)methyl)phenyl)-1H-pyrazolo[3,4-d]pyrimidin-1-yl)-3-(pyridin-2-yl)propyl)-N-methyl-1H-1,2,4-triazole-1-carboxamide]
4 | ≤ 1000 | ≤ 1000 | CC(CN(C)C(=O)n1cncn1)C1CCNc2c(C(N)=O)c(-c3ccc(Oc4ccccc4)cc3)nn21 (centres unmarked) [Compound 308, 7-(1-(N-methyl-1H-1,2,4-triazole-1-carboxamido)propan-2-yl)-2-(4-phenoxyphenyl)-4,5,6,7-tetrahydropyrazolo[1,5-a] pyrimidine-3-carboxamide]
5 | > 1000 | > 1000 | COc1ccc(F)cc1C(=O)NCc1ccc(-c2nn(C[C@H](C)N(C)C(=O)n3cncn3)c3ncnc(N)c23)cc1 [Compound 315, (S)-N-(1-(4-amino-3-(4-((5-fluoro-2-methoxybenzamido)methyl)phenyl)-1H-pyrazolo[3,4-d]pyrimidin-1-yl)propan-2-yl)-N-methyl-1H-1,2,4-triazole-1-carboxamide]
6 | ≤ 1000 | ≤ 1000 | COc1ccc(F)cc1C(=O)NCc1ccc(-c2nn(CC3CCCC3N(C)C(=O)n3cncn3)c3ncnc(N)c23)cc1 (centres unmarked) [Compound 211, N-(2-((4-amino-3-(4-((5-fluoro-2-methoxybenzamido)methyl)phenyl)-1H-pyrazolo[3,4-d]pyrimidin-1-yl)methyl)cyclopentyl)-N-methyl-1H-1,2,4-triazole-1-carboxamide]
7 | ≤ 1000 | ≤ 1000 | COc1ccc(F)cc1C(=O)NCc1ccc(-c2nn(C[C@H]3CCC[C@H]3CN(C)C(=O)n3cncn3)c3ncnc(N)c23)cc1 [Compound 307, N-(((1R,2S)-2-((4-amino-3-(4-((5-fluoro-2-methoxybenzamido)methyl)phenyl)-1H-pyrazolo [3,4-d]pyrimidin-1-yl)methyl)cyclopentyl)methyl)-N-methyl-1H-1,2,4-triazole-1-carboxamide]
8 | > 1000 | > 1000 | COc1nn(C)cc1Nc1nc(N2CCC3(CCN3C(=O)n3cncn3)C2)nc2c1ncn2C (centres unmarked) [Compound 107, (6-(6-((3-methoxy-1-methyl-1H-pyrazol-4-yl)amino)-9-methyl-9H-purin-2-yl)-1,6-diazaspiro[3.4]octan-1-yl)(1H-1,2,4-triazol-1-yl)methanone]
9 | ≤ 1000 | ≤ 1000 | COc1ccc(F)cc1C(=O)NCc1ccc(-c2nn(-c3cccc(CN(C)C(=O)n4cncn4)c3)c3ncnc(N)c23)cc1 [Compound 191, N-(3-(4-amino-3-(4-((5-fluoro-2-methoxybenzamido)methyl)phenyl)-1H-pyrazolo[3,4-d]pyrimidin-1-yl)benzyl)-N-methyl-1H-1,2,4-triazole-1-carboxamide]
10 | > 1000 | ≤ 1000 | COc1ccc(F)cc1C(=O)NCc1ccc(-c2nn(C[C@@H]3C[C@@H](F)CN3C(=O)n3cncn3)c3ncnc(N)c23)cc1 [Compound 221, N-(4-(4-amino-1-(((2S,4R)-4-fluoro-1-(1H-1,2,4-triazole-1-carbonyl)pyrrolidin-2-yl)methyl)-1H-pyrazolo[3,4-d]pyrimidin-3-yl)benzyl)-5-fluoro-2-methoxybenzamide]
11 | > 1000 | > 1000 | CN(C(=O)n1cncn1)C1CCCN(c2ncnc3[nH]ccc23)C1 (centres unmarked) [Compound 192, N-(1-(7H-pyrrolo[2,3-d]pyrimidin-4-yl)piperidin-3-yl)-N-methyl-1H-1,2,4-triazole-1-carboxamide]
12 | ≤ 1000 | ≤ 1000 | COc1ccc(F)cc1C(=O)NCc1ccc(-c2nn(CC3CN(C(=O)n4cncn4)C3)c(N)c2C(N)=O)cc1 [Compound 270, 1-((1-(1H-1,2,4-triazole-1-carbonyl)azetidin-3-yl)methyl)-5-amino-3-(4-((5-fluoro-2-methoxybenzamido)methyl)phenyl)-1H-pyrazole-4-carboxamide]
13 | > 1000 | > 1000 | COc1ccc(F)cc1C(=O)NCc1ccc(-c2nn(CC3C(C)CCCN3C(=O)n3cncn3)c3ncnc(N)c23)cc1 (centres unmarked) [Compound 271, N-(4-(4-amino-1-((3-methyl-1-(1H-1,2,4-triazole-1-carbonyl)piperidin-2-yl)methyl)-1H-pyrazolo[3,4-d]pyrimidin-3-yl)benzyl)-5-fluoro-2-methoxybenzamide]
14 | ≤ 1000 | ≤ 1000 | COc1ccc(F)cc1C(=O)NCc1ccc(-c2nn(C(C)C3CCCCN3C(=O)n3cncn3)c3ncnc(N)c23)cc1 (centres unmarked) [Compound 304, N-(4-(1-(1-(1-(1H-1,2,4-triazole-1-carbonyl)piperidin-2-yl)ethyl)-4-amino-1H-pyrazolo[3,4-d]pyrimidin-3-yl)benzyl)-5-fluoro-2-methoxybenzamide]
15 | ≤ 1000 | ≤ 1000 | COc1ccc(F)cc1C(=O)NCc1ccc(-c2nn(CCC3CCCCN3C(=O)n3cncn3)c3ncnc(N)c23)cc1 (centres unmarked) [Compound 146]
16 | ≤ 1000 | ≤ 1000 | CCN(C(=O)n1cncn1)C1CCCC(n2nc(-c3ccc(Oc4ccccc4)cc3)c3c(N)ncnc32)C1 (centres unmarked) [Compound 109, N-(3-(4-amino-3-(4-phenoxyphenyl)-1H-pyrazolo[3,4-d]pyrimidin-1-yl)cyclohexyl)-N-ethyl-1H-1,2,4-triazole-1-carboxamide]
17 | ≤ 1000 | ≤ 1000 | CC1(C)CC(n2nc(-c3ccc(Oc4ccccc4)cc3)c3c(N)ncnc32)CCN1C(=O)n1cncn1 (centres unmarked) [Compound 148, (4-(4-amino-3-(4-phenoxyphenyl)-1H-pyrazolo[3,4-d]pyrimidin-1-yl)-2,2-dimethylpiperidin-1-yl)(1H-1,2,4-triazol-1-yl)methanone]
18 | ≤ 1000 | ≤ 1000 | COc1ccc(F)cc1C(=O)NCc1ccc(-c2nn([C@H]3CC[C@@H](N(C)C(=O)n4cncn4)C3)c3ncnc(N)c23)cc1 [Compound 269, N-((1R,3S)-3-(4-amino-3-(4-((5-fluoro-2-methoxybenzamido)methyl)phenyl)-1H-pyrazolo [3,4-d]pyrimidin-1-yl)cyclopentyl)-N-methyl-1H-1,2,4-triazole-1-carboxamide]
19 | > 1000 | > 1000 | COc1ccc(F)cc1C(=O)NCc1ccc(-c2nn(CC3COCCN3C(=O)n3cncn3)c3ncnc(N)c23)cc1 (centres unmarked) [Compound 210, N-(4-(1-((4-(1H-1,2,4-triazole-1-carbonyl)morpholin-3-yl)methyl)-4-amino-1H-pyrazolo[3,4-d]pyrimidin-3-yl)benzyl)-5-fluoro-2-methoxybenzamide]
20 | ≤ 1000 | ≤ 1000 | COc1ccc(F)cc1C(=O)NCc1ccc(-c2nn(CC3CCN(C(=O)n4cncn4)C3)c3ncnc(N)c23)cc1 (centres unmarked) [Compound 245, N-(4-(1-((1-(1H-1,2,4-triazole-1-carbonyl)pyrrolidin-3-yl)methyl)-4-amino-1H-pyrazolo[3,4-d]pyrimidin-3-yl)benzyl)-5-fluoro-2-methoxybenzamide]
21 | ≤ 1000 | ≤ 1000 | NC(=O)c1c(-c2ccc(Oc3ccccc3)cc2)nn2c1NCCC2C1CCCN(C(=O)n2cncn2)C1 (centres unmarked) [Compound 207, 7-(1-(1H-1,2,4-triazole-1-carbonyl)piperidin-3-yl)-2-(4-phenoxy-phenyl)-4,5,6,7-tetrahydro-pyrazolo[1,5-a]pyrimidine-3-carboxamide]
22 | ≤ 1000 | ≤ 1000 | COc1ccc(F)cc1C(=O)NCc1ccc(-c2nn(CC3CCCN3C(=O)n3cncn3)c(N)c2C(N)=O)cc1 (centres unmarked) [Compound 293, 1-((1-(1H-1,2,4-triazole-1-carbonyl)pyrrolidin-2-yl)methyl)-5-amino-3-(4-((5-fluoro-2-methoxybenzamido)methyl)phenyl)-1H-pyrazole-4-carboxamide]
23 | > 1000 | > 1000 | CN(C(=O)n1cncn1)C1CCCC1C1CCNc2c(C(N)=O)c(-c3ccc(Oc4ccccc4)cc3)nn21 (centres unmarked) [Compound 235, 7-(2-(N-methyl-1H-1,2,4-triazole-1-carboxamido)cyclopentyl)-2-(4-phenoxyphenyl)-4,5,6,7-tetrahydropyrazolo[1,5-a] pyrimidine-3-carboxamide]
24 | ≤ 1000 | ≤ 1000 | NC(=O)c1c(-c2ccc(Oc3ccccc3)cc2)nn(C2CCC3(C2)CN(C(=O)n2cncn2)C3)c1N (centres unmarked) [Compound 165, 1-(2-(1H-1,2,4-triazole-1-carbonyl)-2-azaspiro[3.4]octan-6-yl)-5-amino-3-(4-phenoxyphenyl)-1H-pyrazole-4-carboxamide]
25 | ≤ 1000 | ≤ 1000 | COc1ccc(F)cc1C(=O)NCc1ccc(-c2nn(CC3CCCC3N(C)C(=O)n3cncn3)c(N)c2C(N)=O)cc1 (centres unmarked) [Compound 294, N-(2-((5-amino-4-carbamoyl-3-(4-((5-fluoro-2-methoxybenzamido)methyl)phenyl)-1H-pyrazol-1-yl)methyl)cyclopentyl)-N-methyl-1H-1,2,4-triazole-1-carboxamide]

— patent publication US20240294531A1, “COVALENT HETEROCYCLES AND USES THEREOF” (Kumquat Biosciences Inc., priority 2022, published 2024)
